Laboratory results published in ChEMBL document CHEMBL1129757 (J Med Chem, 1996).

Each compound was assayed against T1, Melatonin receptor (Gallus gallus, UniProt P49288+P51050+P49285) (assay: Binding affinity towards melatonin receptor in Chicken brain Experiment 1).

Compound	Ki
COc1cccc(CCNC(C)=O)c1	958 nM
COc1ccc(CCNC(C)=O)cc1	> 100000 nM

What follows are compounds tested against T1, Melatonin receptor (assay: Binding affinity towards melatonin receptor in chicken brain.).

Compound	Ki
CCC(=O)NCCCCc1ccccc1OC	339 nM
CCCC(=O)NCCc1cccc(OC)c1	40 nM
CCCC(=O)NCCc1ccc(OC)c(OC)c1	59 nM
CCC(=O)NCCc1c[nH]c2ccc(OC)cc12	0.19 nM
CCCC(=O)NCc1cccc(OC)c1	13000 nM
CCCC(=O)NCCCCc1ccccc1OC	116 nM
COc1ccccc1CCNC(C)=O	573 nM
CCCC(=O)NCCc1ccc(OC)cc1	17900 nM
CC(=O)NCCCc1cccc(F)c1	1920 nM
CCC(=O)NCCCc1cccc(OC)c1	5.6 nM
CCC(=O)NCCCCc1ccc(OC)cc1	1400 nM
CCCCC(=O)NCCc1cccc(OC)c1	741 nM
CCC(=O)NCCCc1ccccc1OC	374 nM
CCC(=O)NCCc1ccccc1OC	135 nM
CC(=O)NCCCc1cccc(Br)c1	852 nM
COc1ccc(CCCCNC(C)=O)cc1	7300 nM
CCC(=O)NCCCc1cccc(Br)c1	318 nM
CCC(=O)NCCCc1ccc(OC)cc1	2900 nM
CCCCC(=O)NCCCc1ccccc1OC	> 100000 nM
COc1cccc(CCCNC(C)=O)c1	63 nM
CCCCC(=O)NCCCc1cccc(Cl)c1	15100 nM
CCCCC(=O)NCCCCc1ccccc1OC	9190 nM
CCC(=O)NCCCCc1cccc(OC)c1	119 nM
CCCC(=O)NCCCc1cccc(F)c1	434 nM

Compound	Ki
COc1ccc(Br)cc1CCN	8 nM
COc1ccc(CCNC(C)=O)cc1OC	870 nM
CCCC(=O)NCCCc1cccc(Cl)c1	113 nM
CCCCC(=O)NCCCCc1cccc(OC)c1	9670 nM
CCCC(=O)NCCCCc1ccc(OC)cc1	822 nM
COc1ccc(CCCNC(C)=O)cc1	14000 nM
CC(=O)NCCCc1cccc(Cl)c1	636 nM
CCCC(=O)NCCCc1ccc(OC)cc1	860 nM
CCC(=O)NCc1cccc(OC)c1	22000 nM
CCCCC(=O)NCCc1ccc(OC)cc1	70800 nM
CCCC(=O)NCCCc1cccc(Br)c1	354 nM
CCCC(=O)NCCCc1cccc(OC)c1	5.5 nM
CCC(=O)NCCc1cccc(OC)c1	62 nM
CCCCC(=O)NCCCCc1ccc(OC)cc1	7000 nM
CCCC(=O)NCCCc1ccccc1OC	442 nM
CCC(=O)NCCCc1cccc(F)c1	740 nM
CCC(=O)NCCc1ccc(OC)c(OC)c1	130 nM
CCCC(=O)NCCCCc1cccc(OC)c1	208 nM
COc1cccc(CNC(C)=O)c1	57000 nM
COc1ccccc1CCCNC(C)=O	1430 nM
CCC(=O)NCCc1ccc(OC)cc1	19200 nM
COc1ccc2c(c1)c1c(n2C)CCCC1CNC(C)=O (stereo unspecified)	0.97 nM
CCCC(=O)NCCc1ccccc1OC	69 nM
CCCCC(=O)NCCc1ccccc1OC	16000 nM

The compounds below were run against T1, Melatonin receptor (assay: Binding affinity towards melatonin receptor in Chicken brain Experiment 2).

Compound	Ki
COc1ccc(CCNC(C)=O)cc1	> 1000 nM
